Laboratory results published in patent US11965039B2, “Compstatin analogues and their medical uses” (priority 2018, dated 2024).
Starred links: 1 amine or outer side, 2 acyl side, 3 side chain; linkers in the order of their positions; H or OH if unused. Positions of bridges follow the written chain, without caps; N, C: chain ends. Non-standard residues stand in square brackets, D forms with d. Residues, ends and D or L forms follow the SMILES beside them. Groups on a side chain read outwards from the residue. *: point of attachment. Trp(1-Me) = Cn1cc(C[C@H](N)C(=O)O)c2ccccc21; C18 diacid = O=C(O)CCCCCCCCCCCCCCCCC(=O)*; γGlu = O=C(O)[C@H](CCC(=O)[*:2])N[*:1]; Sar = CNCC(=O)O

What was measured:
[1] = tested on: classical complement pathway; assay: In vitro haemolysis assay (inhibition of classical complement pathway); assay type: cell-based, human; conditions: human serum, sensitized sheep red blood cells; Table 3, given as upper bounds; read-out: IC50, inhibition of hemolysis
Procedure, shortened: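 Compound dilutions preincubated 15 min at room temperature with diluted human serum (titrated per batch for 70-90% maximal haemolysis), then antibody-sensitized sheep RBC (10^7/well) added for 30 min at 37 °C in Tris/casein buffer, pH 7.4. Stopped with EDTA; haemolysis read at 405 nm; IC50 by 4PL fit.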

[2] = Solubility test at 10 mg/mL (visual inspection and light scattering); assay type: physicochemical; conditions: for Solubility, Condition 1: Acetate pH 4; for Solubility, Condition 2: Acetate pH 5; for Solubility, Condition 3: Phosphate pH 6; for Solubility, Condition 4: Phosphate pH 7; for Solubility, Condition 5: Phosphate pH 7.5

Structure (SMILES)	IC50 [1] [nM]	Solubility, Condition 1 [2]	Solubility, Condition 2 [2]	Solubility, Condition 3 [2]	Solubility, Condition 4 [2]	Solubility, Condition 5 [2]
CC[C@H](C)[C@@H]1NC(=O)[C@@H](NC(=O)[C@H](Cc2ccc(O)cc2)NC(=O)[C@H](CCC(=O)O)NC(=O)[C@H](CO)NC(=O)CNC(=O)[C@H](CCC(=O)O)NC(=O)CCCCCCCCCCCCCCCCC(=O)O)CSSC[C@@H](C(=O)N(C)CC(=O)N[C@@H](CCC(=O)O)C(N)=O)NC(=O)[C@H](CCCNC(=N)N)NC(=O)[C@H](Cc2c[nH]cn2)NC(=O)[C@H](CCC(=O)O)NC(=O)CNC(=O)[C@H](Cc2c[nH]c3ccccc23)NC(=O)[C@H](CC(=O)O)NC(=O)[C@H](CCC(N)=O)NC(=O)[C@H](Cc2cn(C)c3ccccc23)NC1=O [Compound 108] ({C18 diacid}-EGSEYCI[Trp(1-Me)]QDWGEHRC[Sar]E-NH2; disulfide 6-16)	< 500	− (“−” denotes lack of solubility at the given condition, as UV absorbance at 340 nm exceeds 0.1 AU and/or it is visibly turbid or contains particles)	− (“−” denotes lack of solubility at the given condition, as UV absorbance at 340 nm exceeds 0.1 AU and/or it is visibly turbid or contains particles)	+ (“+” denotes solubility at the given condition, as determined by UV absorbance being less than 0.1 AU at 340 nm and the sample being clear when manually inspected)	+ (“+” denotes solubility at the given condition, as determined by UV absorbance being less than 0.1 AU at 340 nm and the sample being clear when manually inspected)	+ (“+” denotes solubility at the given condition, as determined by UV absorbance being less than 0.1 AU at 340 nm and the sample being clear when manually inspected)
CC[C@H](C)[C@@H]1NC(=O)[C@@H](NC(=O)[C@H](Cc2ccc(O)cc2)NC(=O)[C@H](C)NC(=O)[C@H](CO)NC(=O)CNC(=O)[C@H](CCC(=O)O)NC(C)=O)CSSC[C@@H](C(=O)N(C)CC(=O)N[C@@H](CCC(=O)O)C(=O)NCC(=O)N[C@@H](CCC(=O)O)C(=O)N[C@@H](CCCCNC(=O)CC[C@H](NC(=O)CNC(=O)CC[C@H](NC(=O)CCCCCCCCCCCCCCCCC(=O)O)C(=O)O)C(=O)O)C(N)=O)NC(=O)[C@H](CCCNC(=N)N)NC(=O)[C@H](Cc2c[nH]cn2)NC(=O)[C@H](CCC(=O)O)NC(=O)CNC(=O)[C@H](Cc2c[nH]c3ccccc23)NC(=O)[C@H](CC(=O)O)NC(=O)[C@H](CCC(N)=O)NC(=O)[C@H](Cc2cn(C)c3ccccc23)NC1=O [Compound 109] (Ac-EGSAYCI[Trp(1-Me)]QDWGEHRC[Sar]EGEK([γGlu-Gly-γGlu-C18 diacid])-NH2; disulfide 6-16)	< 250	− (“−” denotes lack of solubility at the given condition, as UV absorbance at 340 nm exceeds 0.1 AU and/or it is visibly turbid or contains particles)	+ (“+” denotes solubility at the given condition, as determined by UV absorbance being less than 0.1 AU at 340 nm and the sample being clear when manually inspected)	+ (“+” denotes solubility at the given condition, as determined by UV absorbance being less than 0.1 AU at 340 nm and the sample being clear when manually inspected)	+ (“+” denotes solubility at the given condition, as determined by UV absorbance being less than 0.1 AU at 340 nm and the sample being clear when manually inspected)	+ (“+” denotes solubility at the given condition, as determined by UV absorbance being less than 0.1 AU at 340 nm and the sample being clear when manually inspected)
CC[C@H](C)[C@@H]1NC(=O)[C@@H](NC(=O)[C@H](Cc2ccc(O)cc2)NC(=O)[C@H](CCC(=O)O)NC(=O)[C@H](CO)NC(C)=O)CSSC[C@@H](C(=O)N(C)CC(=O)N[C@@H](CCC(=O)O)C(=O)NCC(=O)N[C@@H](CCC(=O)O)C(=O)N[C@@H](CCCCNC(=O)CC[C@H](NC(=O)CNC(=O)CC[C@H](NC(=O)CCCCCCCCCCCCCCCCC(=O)O)C(=O)O)C(=O)O)C(N)=O)NC(=O)[C@H](CCCNC(=N)N)NC(=O)[C@H](Cc2c[nH]cn2)NC(=O)[C@H](CCC(=O)O)NC(=O)CNC(=O)[C@H](Cc2c[nH]c3ccccc23)NC(=O)[C@H](CC(=O)O)NC(=O)[C@H](CCC(N)=O)NC(=O)[C@H](Cc2cn(C)c3ccccc23)NC1=O [Compound 114] (Ac-SEYCI[Trp(1-Me)]QDWGEHRC[Sar]EGEK([γGlu-Gly-γGlu-C18 diacid])-NH2; disulfide 4-14)	< 500	+ (“+” denotes solubility at the given condition, as determined by UV absorbance being less than 0.1 AU at 340 nm and the sample being clear when manually inspected)	+ (“+” denotes solubility at the given condition, as determined by UV absorbance being less than 0.1 AU at 340 nm and the sample being clear when manually inspected)	+ (“+” denotes solubility at the given condition, as determined by UV absorbance being less than 0.1 AU at 340 nm and the sample being clear when manually inspected)	+ (“+” denotes solubility at the given condition, as determined by UV absorbance being less than 0.1 AU at 340 nm and the sample being clear when manually inspected)	+ (“+” denotes solubility at the given condition, as determined by UV absorbance being less than 0.1 AU at 340 nm and the sample being clear when manually inspected)
CC[C@H](C)[C@@H]1NC(=O)[C@@H](NC(=O)[C@H](Cc2ccc(O)cc2)NC(=O)[C@H](CCC(=O)O)NC(=O)[C@H](CO)NC(C)=O)CSSC[C@@H](C(=O)N(C)CC(=O)N[C@@H](CCC(=O)O)C(=O)NCC(=O)N[C@@H](CCCCN)C(=O)N[C@@H](CCCCNC(=O)CC[C@H](NC(=O)CNC(=O)CC[C@H](NC(=O)CCCCCCCCCCCCCCCCC(=O)O)C(=O)O)C(=O)O)C(N)=O)NC(=O)[C@H](CCCNC(=N)N)NC(=O)[C@H](Cc2c[nH]cn2)NC(=O)[C@H](CCC(=O)O)NC(=O)CNC(=O)[C@H](Cc2c[nH]c3ccccc23)NC(=O)[C@H](CC(=O)O)NC(=O)[C@H](CCC(N)=O)NC(=O)[C@H](Cc2cn(C)c3ccccc23)NC1=O [Compound 115] (Ac-SEYCI[Trp(1-Me)]QDWGEHRC[Sar]EGKK([γGlu-Gly-γGlu-C18 diacid])-NH2; disulfide 4-14)	< 250	− (“−” denotes lack of solubility at the given condition, as UV absorbance at 340 nm exceeds 0.1 AU and/or it is visibly turbid or contains particles)	− (“−” denotes lack of solubility at the given condition, as UV absorbance at 340 nm exceeds 0.1 AU and/or it is visibly turbid or contains particles)	+ (“+” denotes solubility at the given condition, as determined by UV absorbance being less than 0.1 AU at 340 nm and the sample being clear when manually inspected)	+ (“+” denotes solubility at the given condition, as determined by UV absorbance being less than 0.1 AU at 340 nm and the sample being clear when manually inspected)	+ (“+” denotes solubility at the given condition, as determined by UV absorbance being less than 0.1 AU at 340 nm and the sample being clear when manually inspected)
